Results published in PubChem BioAssay AID248 (DTP/NCI, 2004).
“And” between values parts separate entries of the source, which are not always exact repeats. Identical values can stand only once. Inconclusive results and toxic doses are left out. Cut-off read from the data, not from the text of the source: active = T/C of 150% or more; inactive = T/C below 125%.

System: L1210 leukemia ip in BDF1 mice, survival T/C
Assay: NCI In Vivo Anticancer Drug Screen. Data for tumor model L1210 Leukemia (intraperitoneal) in B6D2F1 (BDF1) mice
Conditions: endpoint: mean survival time, higher = longer survival
Method in brief: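 Each compound was tested against a transplantable tumor grown in mice. The endpoint was survival, with treated animals benchmarked against vehicle controls as a simple ratio.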

[1] = dose: 100.0 mg/kg/injection, schedule: Q04DX002 (ip), vehicle: Klucel (hydroxypropylcellulose) (HPC)
[2] = dose: 200.0 mg/kg/injection, schedule: Q04DX002 (ip), vehicle: Klucel (hydroxypropylcellulose) (HPC)
[3] = dose: 400.0 mg/kg/injection, schedule: Q04DX002 (ip), vehicle: Klucel (hydroxypropylcellulose) (HPC)
[4] = dose: 100.0 mg/kg/injection, schedule: Q01DX009 (ip), vehicle: saline with Tween-80
[5] = dose: 100.0 mg/kg/injection, schedule: Q04DX002 (ip), vehicle: saline with Tween-80
[6] = dose: 200.0 mg/kg/injection, schedule: Q04DX002 (ip), vehicle: saline with Tween-80
[7] = dose: 100.0 mg/kg/injection, schedule: Q01DX009 (ip), vehicle: Klucel (hydroxypropylcellulose) (HPC)
[8] = dose: 100.0 mg/kg/injection, schedule: Q04DX003 (ip), vehicle: Klucel (hydroxypropylcellulose) (HPC)
[9] = dose: 200.0 mg/kg/injection, schedule: Q01DX009 (ip), vehicle: Klucel (hydroxypropylcellulose) (HPC)
[10] = dose: 200.0 mg/kg/injection, schedule: Q04DX003 (ip), vehicle: Klucel (hydroxypropylcellulose) (HPC)
[11] = dose: 100.0 mg/kg/injection, schedule: Q01DX001 (ip), vehicle: saline
[12] = dose: 200.0 mg/kg/injection, schedule: Q01DX001 (ip), vehicle: saline
[13] = dose: 400.0 mg/kg/injection, schedule: Q01DX001 (ip), vehicle: saline

Measured: T/C

O=C(NNc1ccccc1)NC1OCC(O)C(O)C1O (stereo unspecified)
inactive: dose: 100.0 mg/kg/injection, schedule: Q01DX009 (ip), vehicle: saline 92 % of control | dose: 100.0 mg/kg/injection, schedule: Q04DX003 (ip), vehicle: water 97 % of control | dose: 200.0 mg/kg/injection, schedule: Q01DX009 (ip), vehicle: saline 92 % of control | dose: 200.0 mg/kg/injection, schedule: Q04DX003 (ip), vehicle: water 97 % of control | dose: 400.0 mg/kg/injection, schedule: Q01DX009 (ip), vehicle: saline 93 % of control | dose: 400.0 mg/kg/injection, schedule: Q04DX003 (ip), vehicle: water 97 % of control

O=C1CCCc2ccc([N+](=O)[O-])cc21
inactive: dose: 100.0 mg/kg/injection, schedule: Q04DX003 (ip), vehicle: saline 96 % of control | dose: 200.0 mg/kg/injection, schedule: Q04DX003 (ip), vehicle: saline 87 % of control

COC1OC(CCl)C(OC(C)=O)C(OC(C)=O)C1OC(C)=O (stereo unspecified)
inactive: [1] 96 % of control and 106 % of control | [2] 104 % of control and 106 % of control | [3] 101 % of control and 103 % of control

COc1ccc(C)cc1NC(=S)NC(=O)c1cccc([N+](=O)[O-])c1
inactive: dose: 100.0 mg/kg/injection, schedule: Q01DX001 (ip), vehicle: saline with Tween-80 93 % of control | [4] 100 % of control and 89 % of control | [5] 87 % of control | dose: 100.0 mg/kg/injection, schedule: Q04DX003 (ip), vehicle: saline with Tween-80 101 % of control | dose: 200.0 mg/kg/injection, schedule: Q01DX001 (ip), vehicle: saline with Tween-80 89 % of control | dose: 200.0 mg/kg/injection, schedule: Q01DX009 (ip), vehicle: saline with Tween-80 96 % of control and 97 % of control | [6] 97 % of control | dose: 200.0 mg/kg/injection, schedule: Q04DX003 (ip), vehicle: saline with Tween-80 93 % of control | dose: 400.0 mg/kg/injection, schedule: Q01DX009 (ip), vehicle: saline with Tween-80 92 % of control and 101 % of control | dose: 400.0 mg/kg/injection, schedule: Q04DX002 (ip), vehicle: saline with Tween-80 90 % of control | dose: 400.0 mg/kg/injection, schedule: Q04DX003 (ip), vehicle: saline with Tween-80 88 % of control

[O-][n+]1ccc(CCc2ccccc2)cc1
inactive: [5] 101 % of control | [6] 101 % of control

NC(=S)N/N=C/c1ccc(F)cn1
inactive: dose: 1.56 mg/kg/injection, schedule: Q01DX009 (ip), vehicle: saline with Tween-80 99 % of control | dose: 3.13 mg/kg/injection, schedule: Q01DX009 (ip), vehicle: saline with Tween-80 106 % of control and 115 % of control | dose: 5.54 mg/kg/injection, schedule: Q01DX009 (ip), vehicle: saline with Tween-80 108 % of control | dose: 6.25 mg/kg/injection, schedule: Q01DX009 (ip), vehicle: saline with Tween-80 119 % of control | dose: 6.25 mg/kg/injection, schedule: Q04DX002 (ip), vehicle: saline with Tween-80 104 % of control | dose: 8.32 mg/kg/injection, schedule: Q01DX009 (ip), vehicle: saline with Tween-80 114 % of control | dose: 12.5 mg/kg/injection, schedule: Q01DX009 (ip), vehicle: saline with Tween-80 119 % of control and 124 % of control | dose: 12.5 mg/kg/injection, schedule: Q04DX002 (ip), vehicle: saline with Tween-80 112 % of control | dose: 18.8 mg/kg/injection, schedule: Q01DX009 (ip), vehicle: saline with Tween-80 98 % of control | dose: 22.0 mg/kg/injection, schedule: Q01DX001 (ip), vehicle: saline with Tween-80 105 % of control | dose: 25.0 mg/kg/injection, schedule: Q04DX002 (ip), vehicle: saline with Tween-80 97 % of control | dose: 33.0 mg/kg/injection, schedule: Q01DX001 (ip), vehicle: saline with Tween-80 107 % of control

NC(N)=N/N=C/c1cccc2ccccc12
inactive: dose: 3.8 mg/kg/injection, schedule: Q01DX Z (ip), vehicle: other 102 % of control | dose: 6.25 mg/kg/injection, schedule: Q01DX009 (ip), vehicle: saline 95 % of control | dose: 6.25 mg/kg/injection, schedule: Q04DX003 (ip), vehicle: Klucel (hydroxypropylcellulose) (HPC) 104 % of control | dose: 7.5 mg/kg/injection, schedule: Q01DX Z (ip), vehicle: other 97 % of control | dose: 12.5 mg/kg/injection, schedule: Q01DX009 (ip), vehicle: saline 98 % of control | dose: 12.5 mg/kg/injection, schedule: Q04DX003 (ip), vehicle: Klucel (hydroxypropylcellulose) (HPC) 100 % of control | dose: 15.0 mg/kg/injection, schedule: Q01DX Z (ip), vehicle: other 105 % of control | dose: 25.0 mg/kg/injection, schedule: Q01DX009 (ip), vehicle: saline 88 % of control | dose: 25.0 mg/kg/injection, schedule: Q04DX003 (ip), vehicle: Klucel (hydroxypropylcellulose) (HPC) 104 % of control | dose: 30.0 mg/kg/injection, schedule: Q01DX Z (ip), vehicle: other 94 % of control

O=C1CSC(c2ccccc2)N1 (stereo unspecified)
inactive: dose: 44.0 mg/kg/injection, schedule: Q04DX003 (ip), vehicle: Klucel (hydroxypropylcellulose) (HPC) 94 % of control and 103 % of control | dose: 67.0 mg/kg/injection, schedule: Q04DX003 (ip), vehicle: Klucel (hydroxypropylcellulose) (HPC) 98 % of control and 100 % of control | [7] 98 % of control | [8] 98 % of control and 100 % of control | dose: 150.0 mg/kg/injection, schedule: Q04DX003 (ip), vehicle: Klucel (hydroxypropylcellulose) (HPC) 98 % of control and 109 % of control | [9] 98 % of control | [10] 100 % of control | dose: 400.0 mg/kg/injection, schedule: Q01DX009 (ip), vehicle: Klucel (hydroxypropylcellulose) (HPC) 95 % of control | dose: 400.0 mg/kg/injection, schedule: Q04DX003 (ip), vehicle: Klucel (hydroxypropylcellulose) (HPC) 105 % of control

COC(=O)N/N=C/C=C/c1ccccc1
inactive: dose: 25.0 mg/kg/injection, schedule: Q01DX009 (ip), vehicle: saline with Tween-80 101 % of control | dose: 50.0 mg/kg/injection, schedule: Q01DX009 (ip), vehicle: saline with Tween-80 105 % of control | [4] 97 % of control

Cc1ccc(S(=O)(=O)N(CC(=O)c2ccccc2)c2ccc(Br)cc2)cc1
inactive: [11] 89 % of control | [12] 86 % of control | [13] 86 % of control

O=C1C(=O)c2cc(Br)ccc2-c2ccc(Br)cc21
inactive: dose: 50.0 mg/kg/injection, schedule: Q01DX001 (ip), vehicle: carboxymethylcellulose (CMC) 107 % of control | dose: 100.0 mg/kg/injection, schedule: Q01DX001 (ip), vehicle: carboxymethylcellulose (CMC) 107 % of control | dose: 200.0 mg/kg/injection, schedule: Q01DX001 (ip), vehicle: carboxymethylcellulose (CMC) 100 % of control | dose: 400.0 mg/kg/injection, schedule: Q01DX001 (ip), vehicle: carboxymethylcellulose (CMC) 89 % of control

O=[N+]([O-])Nc1ccnnc1
inactive: [11] 94 % of control | [12] 96 % of control | [13] 96 % of control

CC(C)(C)N1CC(C(=O)c2ccccc2)C1c1ccc([N+](=O)[O-])cc1 (stereo unspecified)
inactive: [8] 96 % of control | [10] 104 % of control

CCCCCCCCCCCCCCOc1ccc(S(=O)(=O)/N=C(\N)NC(N)=NCCCCCCCCCC)cc1
inactive: [1] 89 % of control | [2] 101 % of control | [3] 89 % of control

CC(=O)c1ccc(Br)cc1OCC(=O)O
inactive: dose: 100.0 mg/kg/injection, schedule: Q01DX009 (ip), vehicle: gum acacia 102 % of control | dose: 100.0 mg/kg/injection, schedule: Q04DX003 (ip), vehicle: gum acacia 97 % of control | dose: 200.0 mg/kg/injection, schedule: Q01DX009 (ip), vehicle: gum acacia 103 % of control | dose: 200.0 mg/kg/injection, schedule: Q04DX003 (ip), vehicle: gum acacia 92 % of control | dose: 400.0 mg/kg/injection, schedule: Q04DX003 (ip), vehicle: gum acacia 94 % of control

COc1ccc(Nc2ccccc2C(=O)NN)cc1
inactive: dose: 50.0 mg/kg/injection, schedule: Q01DX009 (ip), vehicle: Klucel (hydroxypropylcellulose) (HPC) 102 % of control | [7] 96 % of control | [8] 94 % of control | [10] 105 % of control

Cc1cc[n+]([O-])cc1C
inactive: [7] 101 % of control | [1] 98 % of control | [9] 96 % of control | [2] 101 % of control
